Experimental data from ChEMBL document CHEMBL1201862, “PubChem BioAssay data set” (2004).
Active and inactive are the calls of the source. Rule as the data show it: actives have a measured IC50 and inactives only a lower limit.

These molecules were tested against Envelope glycoprotein gp160 (Human immunodeficiency virus 1, UniProt Q6QLK5) (assay: inhibitors of HIV fusion peptide binding, primary screen, biochemical, uHTS, fluorescence dequenching (AID 1986)).
Sequence of Envelope glycoprotein gp160 (Q6QLK5 whole entry, the tested form may be a part): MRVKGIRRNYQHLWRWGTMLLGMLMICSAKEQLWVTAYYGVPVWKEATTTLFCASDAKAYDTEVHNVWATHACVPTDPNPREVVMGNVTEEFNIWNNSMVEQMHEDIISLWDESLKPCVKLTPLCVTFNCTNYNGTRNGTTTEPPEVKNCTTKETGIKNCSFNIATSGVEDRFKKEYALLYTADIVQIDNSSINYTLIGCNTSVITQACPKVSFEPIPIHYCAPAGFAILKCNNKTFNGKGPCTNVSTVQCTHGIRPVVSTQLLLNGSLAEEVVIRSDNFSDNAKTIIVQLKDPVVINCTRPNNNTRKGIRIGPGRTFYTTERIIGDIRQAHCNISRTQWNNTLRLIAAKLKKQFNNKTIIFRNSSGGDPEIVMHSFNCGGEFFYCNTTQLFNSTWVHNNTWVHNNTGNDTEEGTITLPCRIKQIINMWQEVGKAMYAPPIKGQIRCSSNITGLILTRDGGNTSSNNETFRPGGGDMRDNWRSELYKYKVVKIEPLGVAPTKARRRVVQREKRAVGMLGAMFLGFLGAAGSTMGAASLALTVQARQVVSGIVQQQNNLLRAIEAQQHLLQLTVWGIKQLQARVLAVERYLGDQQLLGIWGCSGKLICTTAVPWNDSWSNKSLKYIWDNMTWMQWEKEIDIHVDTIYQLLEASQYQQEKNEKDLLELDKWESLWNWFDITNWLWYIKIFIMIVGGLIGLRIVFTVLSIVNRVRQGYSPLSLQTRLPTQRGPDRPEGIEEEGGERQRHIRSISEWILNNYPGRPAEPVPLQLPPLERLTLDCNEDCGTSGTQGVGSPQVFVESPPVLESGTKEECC
In the case of `COc1ccc(-c2csc(NC(=O)c3ccccc3NS(=O)(=O)c3ccc(C)cc3)n2)cc1`, the IC50 is reported as 12.4 µM (active). In the case of `CC(C)(C)c1ccc2c(c1)OC(C(=O)N/N=C\c1ccc(-c3cccc(C(=O)O)c3)o1)CO2` (stereo not drawn), the IC50 is reported as 14.1 µM (active). For `CCCCCNC(=O)c1ccc2c(=O)[nH]c3c(C(=O)NCC4CCCO4)sc(=S)n3c2c1` (stereo not drawn), the IC50 was 20 µM (active).
